Measurements as given in the kinase profiling compilation of Christmann-Franck et al. (2016).

What was measured:
Assay in all cases: radiometric filter-binding kinase assay
MAPK1 (human) = MAPK1 (human) (UniProt P28482)
GCK (human) = GCK (human) (UniProt Q12851)
[1] = molecular target: STK11 CAB39 STRADA (human) (UniProt Q9Y376+Q7RTN6+Q15831)
CHEK1 (human) = CHEK1 (human) (UniProt O14757)
SRC (human) = SRC (human) (UniProt P12931)
MAPK10 (human) = MAPK10 (human) (UniProt P53779); settings: compound 0.1 µM
MAP2K1 (human) = MAP2K1 (human) (UniProt Q02750)
Sequence of MAP2K1 (human) (Q02750 whole entry, looked up): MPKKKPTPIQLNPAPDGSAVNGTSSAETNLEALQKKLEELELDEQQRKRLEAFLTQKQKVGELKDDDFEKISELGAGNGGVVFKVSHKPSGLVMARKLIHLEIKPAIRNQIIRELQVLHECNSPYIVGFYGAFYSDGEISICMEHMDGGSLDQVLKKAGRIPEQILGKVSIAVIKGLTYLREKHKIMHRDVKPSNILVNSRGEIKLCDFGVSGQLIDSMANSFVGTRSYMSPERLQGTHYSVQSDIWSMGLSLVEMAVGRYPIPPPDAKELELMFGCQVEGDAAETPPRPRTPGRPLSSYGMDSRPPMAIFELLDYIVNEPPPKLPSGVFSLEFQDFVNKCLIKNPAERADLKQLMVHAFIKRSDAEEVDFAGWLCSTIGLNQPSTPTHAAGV

MARK2 (human) = MARK2 (human) (UniProt Q7KZI7); settings: compound 0.1 µM
IKBKB (human) = IKBKB (human) (UniProt O14920)
MAP3K5 (human) = MAP3K5 (human) (UniProt Q99683); settings: compound 0.1 µM
MKNK2 (human) = MKNK2 (human) (UniProt Q9HBH9)
MKNK1 (human) = MKNK1 (human) (UniProt Q9BUB5)
MAPK3 (human) = MAPK3 (human) (UniProt P27361)
PHKG1 (human) = PHKG1 (human) (UniProt Q16816)
Sequence of PHKG1 (human) (Q16816 whole entry, looked up): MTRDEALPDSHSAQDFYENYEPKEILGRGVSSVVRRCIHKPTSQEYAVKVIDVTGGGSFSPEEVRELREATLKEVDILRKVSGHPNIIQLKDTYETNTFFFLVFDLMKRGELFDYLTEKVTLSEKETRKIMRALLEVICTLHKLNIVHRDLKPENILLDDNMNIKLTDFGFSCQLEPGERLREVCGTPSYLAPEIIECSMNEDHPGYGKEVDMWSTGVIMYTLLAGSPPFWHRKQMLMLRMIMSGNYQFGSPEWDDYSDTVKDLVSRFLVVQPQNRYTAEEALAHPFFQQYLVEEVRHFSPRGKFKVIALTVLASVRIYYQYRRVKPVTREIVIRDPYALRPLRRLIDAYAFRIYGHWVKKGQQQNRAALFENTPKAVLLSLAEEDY

PIM2 (human) = PIM2 (human) (UniProt Q9P1W9)
Sequence of PIM2 (human) (Q9P1W9 whole entry, looked up): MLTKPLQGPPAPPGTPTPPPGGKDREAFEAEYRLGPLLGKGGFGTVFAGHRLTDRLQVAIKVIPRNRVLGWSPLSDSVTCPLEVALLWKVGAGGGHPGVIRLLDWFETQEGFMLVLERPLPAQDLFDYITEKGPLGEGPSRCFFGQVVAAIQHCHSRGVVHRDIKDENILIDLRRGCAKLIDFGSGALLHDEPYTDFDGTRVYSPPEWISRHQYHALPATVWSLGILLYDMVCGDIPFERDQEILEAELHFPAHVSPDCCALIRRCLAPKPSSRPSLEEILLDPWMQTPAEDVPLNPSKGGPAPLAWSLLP

PKN2 (human) = PKN2 (human) (UniProt Q16513)
Sequence of PKN2 (human) (Q16513 whole entry, looked up): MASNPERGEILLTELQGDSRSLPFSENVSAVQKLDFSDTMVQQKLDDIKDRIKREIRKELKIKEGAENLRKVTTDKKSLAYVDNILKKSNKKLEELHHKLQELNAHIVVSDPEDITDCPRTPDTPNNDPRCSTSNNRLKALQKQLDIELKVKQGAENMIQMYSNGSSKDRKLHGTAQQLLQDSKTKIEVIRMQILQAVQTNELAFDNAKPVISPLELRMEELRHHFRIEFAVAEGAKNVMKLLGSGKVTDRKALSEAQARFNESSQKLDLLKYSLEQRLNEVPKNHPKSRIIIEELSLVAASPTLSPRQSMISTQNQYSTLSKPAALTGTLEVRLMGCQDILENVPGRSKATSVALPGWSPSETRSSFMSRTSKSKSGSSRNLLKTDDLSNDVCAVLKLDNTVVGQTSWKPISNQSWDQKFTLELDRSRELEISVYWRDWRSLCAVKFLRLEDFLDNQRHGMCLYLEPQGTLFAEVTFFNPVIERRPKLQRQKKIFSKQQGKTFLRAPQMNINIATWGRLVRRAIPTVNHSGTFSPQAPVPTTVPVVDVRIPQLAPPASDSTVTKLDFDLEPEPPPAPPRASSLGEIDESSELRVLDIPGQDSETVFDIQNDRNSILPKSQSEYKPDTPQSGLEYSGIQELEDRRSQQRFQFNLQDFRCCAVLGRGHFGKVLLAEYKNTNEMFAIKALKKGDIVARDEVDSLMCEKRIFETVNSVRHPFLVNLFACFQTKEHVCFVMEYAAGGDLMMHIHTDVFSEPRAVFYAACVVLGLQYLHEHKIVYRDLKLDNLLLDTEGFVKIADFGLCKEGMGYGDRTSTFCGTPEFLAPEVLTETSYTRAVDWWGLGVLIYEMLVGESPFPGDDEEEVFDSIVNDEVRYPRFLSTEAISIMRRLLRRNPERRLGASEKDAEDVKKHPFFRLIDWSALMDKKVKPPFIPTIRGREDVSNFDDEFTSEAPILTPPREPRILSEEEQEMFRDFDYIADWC

MAPK9 (human) = MAPK9 (human) (UniProt P45984)
[2] = tested on: AKT2 (human), P31751 [S474D]
MAPK15 (human) = MAPK15 (human) (UniProt Q8TD08)
NTRK1 (human) = NTRK1 (human) (UniProt P04629); settings: compound 0.1 µM
MINK1 (human) = MINK1 (human) (UniProt Q8N4C8)
IGF1R (human) = IGF1R (human) (UniProt P08069)
EPHB4 (human) = EPHB4 (human) (UniProt P54760); settings: compound 0.1 µM
MAP3K1 (human) = MAP3K1 (human) (UniProt Q13233); settings: compound 0.1 µM
MAPKAPK2 (human) = MAPKAPK2 (human) (UniProt P49137)
RPS6KA1 KD1 KD2 (human) = RPS6KA1 KD1 KD2 (human) (UniProt Q15418)
CHEK2 (human) = CHEK2 (human) (UniProt O96017)
Sequence of CHEK2 (human) (O96017 whole entry, looked up): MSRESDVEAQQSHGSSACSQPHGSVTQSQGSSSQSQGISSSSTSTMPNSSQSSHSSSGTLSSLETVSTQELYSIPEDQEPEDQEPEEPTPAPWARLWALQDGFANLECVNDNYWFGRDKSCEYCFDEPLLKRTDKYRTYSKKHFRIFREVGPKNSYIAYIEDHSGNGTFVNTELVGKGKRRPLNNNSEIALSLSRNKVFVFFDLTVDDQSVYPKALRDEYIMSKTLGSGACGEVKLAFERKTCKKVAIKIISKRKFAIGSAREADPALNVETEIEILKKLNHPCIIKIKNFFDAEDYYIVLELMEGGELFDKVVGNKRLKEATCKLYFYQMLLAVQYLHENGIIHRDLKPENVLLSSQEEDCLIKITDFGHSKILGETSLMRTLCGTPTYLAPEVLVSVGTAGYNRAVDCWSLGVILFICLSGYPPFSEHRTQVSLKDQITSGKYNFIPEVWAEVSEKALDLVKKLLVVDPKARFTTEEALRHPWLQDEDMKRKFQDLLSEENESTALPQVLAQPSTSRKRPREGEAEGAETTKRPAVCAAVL

NEK2 (human) = NEK2 (human) (UniProt P51955)
Sequence of NEK2 (human) (P51955 whole entry, looked up): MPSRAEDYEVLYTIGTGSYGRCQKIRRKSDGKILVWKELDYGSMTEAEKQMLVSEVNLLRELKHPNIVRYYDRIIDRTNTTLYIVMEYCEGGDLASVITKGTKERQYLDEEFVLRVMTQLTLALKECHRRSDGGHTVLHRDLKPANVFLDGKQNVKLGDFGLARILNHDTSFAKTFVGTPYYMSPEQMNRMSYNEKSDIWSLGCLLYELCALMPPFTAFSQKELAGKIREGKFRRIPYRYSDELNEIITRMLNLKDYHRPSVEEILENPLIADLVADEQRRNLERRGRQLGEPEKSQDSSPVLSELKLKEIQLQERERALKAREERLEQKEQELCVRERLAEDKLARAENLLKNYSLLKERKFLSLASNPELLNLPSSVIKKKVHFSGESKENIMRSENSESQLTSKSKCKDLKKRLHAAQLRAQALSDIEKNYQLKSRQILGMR

STK3 (human) = STK3 (human) (UniProt Q13188)
Sequence of STK3 (human) (Q13188 whole entry, looked up): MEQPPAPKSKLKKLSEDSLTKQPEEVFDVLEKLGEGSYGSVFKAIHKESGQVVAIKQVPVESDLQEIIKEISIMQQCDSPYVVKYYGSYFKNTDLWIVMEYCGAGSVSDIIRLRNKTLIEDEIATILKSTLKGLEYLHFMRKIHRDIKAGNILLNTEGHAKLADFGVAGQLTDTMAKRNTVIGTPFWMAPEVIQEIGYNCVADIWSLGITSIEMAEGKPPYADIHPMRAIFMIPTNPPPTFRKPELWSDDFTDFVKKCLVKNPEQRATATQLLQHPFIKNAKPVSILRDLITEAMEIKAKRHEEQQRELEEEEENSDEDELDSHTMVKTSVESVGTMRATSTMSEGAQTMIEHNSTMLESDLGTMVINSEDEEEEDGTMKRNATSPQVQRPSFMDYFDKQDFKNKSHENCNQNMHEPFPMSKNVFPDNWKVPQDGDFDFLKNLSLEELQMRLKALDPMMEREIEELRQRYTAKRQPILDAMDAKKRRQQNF

PRKACA (human) = PRKACA (human) (UniProt P17612)
PRKAA1 or PRKAA2 (rat) = settings: accession and sequence are those of the human protein
YES1 (human) = YES1 (human) (UniProt P07947)
AURKB (human) = AURKB (human) (UniProt Q96GD4)
Sequence of AURKB (human) (Q96GD4 whole entry, looked up): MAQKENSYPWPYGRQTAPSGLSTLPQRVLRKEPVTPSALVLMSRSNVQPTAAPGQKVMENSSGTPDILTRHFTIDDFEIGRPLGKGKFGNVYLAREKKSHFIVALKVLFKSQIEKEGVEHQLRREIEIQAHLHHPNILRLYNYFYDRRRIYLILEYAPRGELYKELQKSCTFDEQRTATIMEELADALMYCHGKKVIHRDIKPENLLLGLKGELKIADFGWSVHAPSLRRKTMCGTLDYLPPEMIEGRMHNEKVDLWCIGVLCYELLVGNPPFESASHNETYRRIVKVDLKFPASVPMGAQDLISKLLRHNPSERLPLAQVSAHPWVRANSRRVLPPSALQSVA

PRKCA (human) = PRKCA (human) (UniProt P17252)
CAMKK2 (human) = CAMKK2 (human) (UniProt Q96RR4)

Sequence of CHEK1 (human) (O14757 whole entry, looked up): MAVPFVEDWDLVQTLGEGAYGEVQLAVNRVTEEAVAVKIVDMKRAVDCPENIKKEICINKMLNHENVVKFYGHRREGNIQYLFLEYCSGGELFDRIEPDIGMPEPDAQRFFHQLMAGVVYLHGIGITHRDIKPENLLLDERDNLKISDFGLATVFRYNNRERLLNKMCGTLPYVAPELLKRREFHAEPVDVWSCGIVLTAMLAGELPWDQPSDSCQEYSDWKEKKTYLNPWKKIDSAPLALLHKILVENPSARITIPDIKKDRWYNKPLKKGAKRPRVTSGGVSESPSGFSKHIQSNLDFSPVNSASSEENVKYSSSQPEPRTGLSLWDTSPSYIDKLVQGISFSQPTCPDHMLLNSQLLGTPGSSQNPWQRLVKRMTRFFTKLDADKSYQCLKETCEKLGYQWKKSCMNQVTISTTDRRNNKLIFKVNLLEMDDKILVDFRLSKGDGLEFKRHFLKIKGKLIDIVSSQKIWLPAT
Sequence of SRC (human) (P12931 whole entry, looked up): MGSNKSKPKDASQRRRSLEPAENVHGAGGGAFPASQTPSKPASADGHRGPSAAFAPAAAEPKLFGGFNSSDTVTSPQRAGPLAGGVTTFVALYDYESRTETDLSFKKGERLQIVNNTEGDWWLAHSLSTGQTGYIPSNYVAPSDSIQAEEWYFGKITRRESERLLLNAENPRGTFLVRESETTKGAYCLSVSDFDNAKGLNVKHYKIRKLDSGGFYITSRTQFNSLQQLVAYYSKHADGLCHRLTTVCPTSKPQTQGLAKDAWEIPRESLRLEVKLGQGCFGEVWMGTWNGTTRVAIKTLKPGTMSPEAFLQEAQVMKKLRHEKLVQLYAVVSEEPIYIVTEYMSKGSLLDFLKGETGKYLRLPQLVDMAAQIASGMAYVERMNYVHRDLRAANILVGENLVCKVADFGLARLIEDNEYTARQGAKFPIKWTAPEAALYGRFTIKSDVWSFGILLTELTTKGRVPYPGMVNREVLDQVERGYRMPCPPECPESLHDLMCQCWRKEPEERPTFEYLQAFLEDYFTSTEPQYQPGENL

`O=C(O)c1ccc(-c2c[nH]c3ncc(-c4ccccc4)cc23)cc1C1CCCC1` showed a residual activity (MAPK1 (human); compound 0.1 µM) of 100%, a residual activity (MAPK1 (human); compound 1.0 µM) of 103% and a residual activity (MAPK1 (human); compound 10.0 µM) of 61%. It also gave a residual activity (GCK (human); compound 0.1 µM) of 8%, a residual activity (GCK (human); compound 1.0 µM) of 3% and a residual activity (GCK (human); compound 10.0 µM) of 1%. It also gave a residual activity ([1]; compound 0.1 µM) of 86%, a residual activity ([1]; compound 1.0 µM) of 89% and a residual activity (CHEK1 (human); compound 0.1 µM) of 112%. It also gave a residual activity (CHEK1 (human); compound 1.0 µM) of 108%, a residual activity (CHEK1 (human); compound 10.0 µM) of 79% and a residual activity (SRC (human); compound 0.1 µM) of 93%. It also gave a residual activity (SRC (human); compound 1.0 µM) of 102%, a residual activity (SRC (human); compound 10.0 µM) of 44% and a residual activity (MAPK10 (human)) of 73%. For the same molecule, the residual activity (MAP2K1 (human); compound 0.1 µM) was 105%, the residual activity (MAP2K1 (human); compound 1.0 µM) was 34% and the residual activity (MAP2K1 (human); compound 10.0 µM) was 12%. For the same molecule, the residual activity (MARK2 (human)) was 88%, the residual activity (IKBKB (human); compound 0.1 µM) was 94% and the residual activity (IKBKB (human); compound 1.0 µM) was 97%. It also gave a residual activity (IKBKB (human); compound 10.0 µM) of 64%, a residual activity (MAP3K5 (human)) of 100% and a residual activity (MKNK2 (human); compound 0.1 µM) of 68%. It also gave a residual activity (MKNK2 (human); compound 1.0 µM) of 14%, a residual activity (MKNK2 (human); compound 10.0 µM) of 4% and a residual activity (MKNK1 (human); compound 0.1 µM) of 28%. The residual activity (MKNK1 (human); compound 1.0 µM) was 3%, the residual activity (MKNK1 (human); compound 10.0 µM) was 3% and the residual activity (MAPK3 (human); compound 0.1 µM) was 105%. For the same molecule, the residual activity (MAPK3 (human); compound 1.0 µM) was 75%, the residual activity (MAPK3 (human); compound 10.0 µM) was 39% and the residual activity (PHKG1 (human); compound 0.1 µM) was 34%. The residual activity (PHKG1 (human); compound 1.0 µM) was 3%, the residual activity (PHKG1 (human); compound 10.0 µM) was 0% and the residual activity (PIM2 (human); compound 0.1 µM) was 104%. For the same molecule, the residual activity (PIM2 (human); compound 1.0 µM) was 92%, the residual activity (PIM2 (human); compound 10.0 µM) was 75% and the residual activity (PKN2 (human); compound 0.1 µM) was 76%. It also gave a residual activity (PKN2 (human); compound 1.0 µM) of 31%, a residual activity (PKN2 (human); compound 10.0 µM) of 5% and a residual activity (MAPK9 (human); compound 0.1 µM) of 80%. It also gave a residual activity (MAPK9 (human); compound 1.0 µM) of 46%, a residual activity (MAPK9 (human); compound 10.0 µM) of 9% and a residual activity ([2]; compound 0.1 µM) of 86%. It also gave a residual activity ([2]; compound 1.0 µM) of 98%, a residual activity ([2]; compound 10.0 µM) of 74% and a residual activity (MAPK15 (human); compound 0.1 µM) of 23%. For the same molecule, the residual activity (MAPK15 (human); compound 1.0 µM) was 32%, the residual activity (MAPK15 (human); compound 10.0 µM) was 23% and the residual activity (NTRK1 (human)) was 29%. The residual activity (MINK1 (human); compound 0.1 µM) was 68%, the residual activity (MINK1 (human); compound 1.0 µM) was 19% and the residual activity (MINK1 (human); compound 10.0 µM) was 2%. The residual activity (IGF1R (human); compound 0.1 µM) was 100%, the residual activity (IGF1R (human); compound 1.0 µM) was 103% and the residual activity (IGF1R (human); compound 10.0 µM) was 18%. It also gave a residual activity (EPHB4 (human)) of 122%, a residual activity (MAP3K1 (human)) of 92% and a residual activity (MAPKAPK2 (human); compound 0.1 µM) of 107%. It also gave a residual activity (MAPKAPK2 (human); compound 1.0 µM) of 103%, a residual activity (MAPKAPK2 (human); compound 10.0 µM) of 96% and a residual activity (RPS6KA1 KD1 KD2 (human); compound 0.1 µM) of 102%. The residual activity (RPS6KA1 KD1 KD2 (human); compound 1.0 µM) was 93%, the residual activity (RPS6KA1 KD1 KD2 (human); compound 10.0 µM) was 38% and the residual activity (CHEK2 (human); compound 0.1 µM) was 83%. It also gave a residual activity (CHEK2 (human); compound 1.0 µM) of 40%, a residual activity (CHEK2 (human); compound 10.0 µM) of 28% and a residual activity (NEK2 (human); compound 0.1 µM) of 114%. It also gave a residual activity (NEK2 (human); compound 1.0 µM) of 60%, a residual activity (NEK2 (human); compound 10.0 µM) of 27% and a residual activity (STK3 (human); compound 0.1 µM) of 68%. It also gave a residual activity (STK3 (human); compound 1.0 µM) of 22%, a residual activity (STK3 (human); compound 10.0 µM) of 4% and a residual activity (PRKACA (human); compound 0.1 µM) of 91%. It also gave a residual activity (PRKACA (human); compound 1.0 µM) of 104%, a residual activity (PRKACA (human); compound 10.0 µM) of 97% and a residual activity (PRKAA1 or PRKAA2 (rat); compound 0.1 µM) of 49%. It also gave a residual activity (PRKAA1 or PRKAA2 (rat); compound 1.0 µM) of 2%, a residual activity (PRKAA1 or PRKAA2 (rat); compound 10.0 µM) of 1% and a residual activity (YES1 (human); compound 0.1 µM) of 105%. The residual activity (YES1 (human); compound 1.0 µM) was 93%, the residual activity (YES1 (human); compound 10.0 µM) was 42% and the residual activity (AURKB (human); compound 0.1 µM) was 85%. The residual activity (AURKB (human); compound 1.0 µM) was 32%, the residual activity (AURKB (human); compound 10.0 µM) was 6% and the residual activity (PRKCA (human); compound 0.1 µM) was 100%. The residual activity (PRKCA (human); compound 1.0 µM) was 61%, the residual activity (PRKCA (human); compound 10.0 µM) was 33% and the residual activity (CAMKK2 (human); compound 0.1 µM) was 11%. For the same molecule, the residual activity (CAMKK2 (human); compound 1.0 µM) was 2% and the residual activity (CAMKK2 (human); compound 10.0 µM) was 2%.
